Results on 3 compounds are retold here after article PMC11336835 (Heliyon, 2024).

Data set [1] deals with Mycobacterium bovis var BCG. As to the kind of experiment: organism not typed. The data set is classed as cell-based. Particulars: for IC50: read-out: IC50 against Mycobacterium bovis var BCG.
Data set [2] deals with Mycobacterium tuberculosis H37Rv. Kind of data set: Resazurin reduction growth inhibition assay, M. tuberculosis H37Rv. The data set is classed as cell-based. Particulars: for IC50 against Mycobacterium tuberculosis H37Rv / IC50: means ± SEM of triplicates; for IC50: Mycobacterium tuberculosis, H37RV, read-out: IC50 against Mycobacterium tuberculosis H37Rv.
The subject of data set [3] is Bacillus subtilis. As to the kind of experiment: Antimicrobial spectrum assay, Bacillus subtilis. The data set is classed as cell-based. Particulars: for IC50: Bacillus subtilis, read-out: IC50 against Bacillus subtilis.
In data set [4] the test system is Mycobacterium smegmatis mc2155. Kind of data set: Resazurin reduction growth inhibition assay, M. smegmatis. Format: cell-based. Particulars: for IC50: Mycolicibacterium smegmatis, MC2155, growth inhibition, resazurin, means ± SEM of triplicates, read-out: IC50 against Mycobacterium smegmatis. In general terms: Alamar Blue is a resazurin reagent that responds to reducing activity.

The subject of data set [5] is Staphylococcus aureus. As to the kind of experiment: Antimicrobial spectrum assay, Staphylococcus aureus. Format: cell-based. Particulars: for IC50: Staphylococcus aureus, read-out: IC50 against Staphylococcus aureus.
The target of data set [6] is T1, Shikimate kinase (MtSK) (Mycobacterium tuberculosis, UniProt P9WPY3).
T1 construct: made in house; host or cells: E. coli
T1 sequence (P9WPY3 whole entry): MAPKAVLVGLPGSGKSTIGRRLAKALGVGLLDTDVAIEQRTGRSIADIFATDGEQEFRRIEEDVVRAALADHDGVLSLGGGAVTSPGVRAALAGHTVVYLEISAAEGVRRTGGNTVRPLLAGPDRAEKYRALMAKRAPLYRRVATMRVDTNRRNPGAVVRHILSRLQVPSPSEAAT
As to the kind of experiment: Recombinant MtSK inhibition, ADP coupling assay. Particulars: for IC50: read-out: Inhibition Concentration (IC50), MtSK (converted); for Ki: read-out: inhibition constant (Ki), MtSK (converted). Format: biochemical, M. tuberculosis. The method, then: In this study, we conducted enzymatic assays to assess the inhibition of the pure compound isolated in this experiment. We also assayed control and standard drugs (rifampicin and actinomycin D). At this time, we focused on three essential enzymes in M. tuberculosis: Shikimate kinase (MtSK), phosphopantothenoylcysteine synthetase phosphopantothenoylcysteine decarboxylase (MtCoABC), and 5-enolpyruvylshikimate-3-phosphate synthase (MtEPSPS), based on docking results. All these enzymes were prepared as recombinant proteins expressed in E. coli (details not included in this study or unpublished data). For the MtSK inhibition assessment, we quantified the production of ADP in the reaction using a coupling assay, as previously described. In the case of MtCoABC and MtEPSPS inhibition, we employed a pyrophosphate assay with the BIOMOL® Green reagent (Enzo Life Sciences). All assays were conducted on a 96-well plate format, with each well having a final volume of 50 μL.

Data set [7] is described as follows: Solubility of the purified compound in solvents. Particulars: qualitative. Format: physicochemical.
A short description of data set [8]: in vitro. Particulars: human, DLD-1 colorectal adenocarcinoma cells.
Description: The cytotoxicity assay involved the evaluation of cytotoxic effects on human cells using the colorectal adenocarcinoma cell line (DLD-1). The DLD-1 cells were cultured in a 75 cm^2 flask (Violamo) at 37 °C, with Roswell Park Memorial Institute (RPMI 1640) medium supplemented with 10 % FBS, 2.1 mM stable Glutamine, and 2.0 g/L NaHCO3. DLD-1 cells in a semiconfluent state were detached from the flask by incubating them with 5 mL of RPMI 1640 containing 0.25 % trypsin-EDTA to conduct the assay. After detachment, the DLD-1 cells were resuspended in RPMI 1640 supplemented with FBS, L-glutamine, and NaHCO3, and their cell viability was assessed using 0.4 % Trypan blue on a hemocytometer. Approximately 100 μL of the cell suspension, containing 3,000 cells, was added to each well of a 96-well clear-bottom plate. Cells were dispensed into the wells containing 2 μL of compounds dissolved in 50 % DMSO (final compound concentrations: 100, 20, 4, 0.8, and 0.2 μM and final DMSO concentration was 1 % each well). The culture plate was then incubated at 37 °C under 5 % CO2. Following 48 h of cultivation, 10 μL of Cell Counting Kit 8 (Dojindo, Japan) was added to each well, and the plates were further incubated for 2 h to examine cell growth and survival. The absorbance at 450 nm wavelength was measured using a microplate reader. The assay was conducted in triplicate for each dilution.
The subject of data set [9] is Salmonella enterica. Kind of data set: Antimicrobial spectrum assay, Salmonella enterica. Format: cell-based. Particulars: ND = no inhibition detected at maximum concentration tested (100 μg/mL).

The structures appear in SMILES notation. Values after ≈ are worked out from the molar mass of the structure shown. Where two headings read alike, the source gives them in different places. *1 amine or outer side, *2 acyl side, *3 side chain or, on linkers, in order; H or OH if unused. Where a SMILES comes first, the peptide text is derived from it. Bridges are numbered along the chain shown (N, C = ends). Roman numbers before positions name the chains, in order. [ ]: non-standard residue; d: D form. Actinocin(9to1) = Cc1c2oc3c(C)ccc(C(=O)[*:1])c3nc-2c(C(=O)[*:2])c(N)c1=O; NMeV = CN[C@H](C(=O)O)C(C)C; Sar = CNCC(=O)O

As to `CO[C@H]1/C=C/O[C@@]2(C)Oc3c(C)c(O)c4c(O)c(c(/C=N/N5CCN(C)CC5)c(O)c4c3C2=O)NC(=O)/C(C)=C\C=C\[C@H](C)[C@H](O)[C@@H](C)[C@@H](O)[C@@H](C)[C@H](OC(C)=O)[C@@H]1C` [Rifampicin], the IC50 was less than 0.03 µg/mL in data set [1], less than 0.3 µg/mL in data set [3], 0.48 ± 0.07 µg/mL (≈ 0.583 µM) in [4] and less than 0.3 µg/mL in [5]. Also, the “IC50 against Mycobacterium tuberculosis H37Rv” value in [2] (growth inhibition, resazurin) was less than 0.01 µg/mL; in data set [2] (growth inhibition, resazurin, listed as rifampicin), 0.8 ± 0.12 µg/mL (≈ 0.972 µM).
Take `Cc1c2oc3c(C)ccc(C(=O)N[C@@H]4C(=O)N[C@H](C(C)C)C(=O)N5CCC[C@H]5C(=O)N(C)CC(=O)N(C)[C@@H](C(C)C)C(=O)O[C@@H]4C)c3nc-2c(C(=O)N[C@@H]2C(=O)N[C@H](C(C)C)C(=O)N3CCC[C@H]3C(=O)N(C)CC(=O)N(C)[C@@H](C(C)C)C(=O)O[C@@H]2C)c(N)c1=O` [F5(23), actinomycin D] (I: T[dV]P[Sar][NMeV] / II: T[dV]P[Sar][NMeV]; ester I:1-I:C, II:1-II:C; linker I:N-II:N via Actinocin(9to1)): in [1], the “increase in potency against M. bovis compared to actinomycin D” value was 10 fold. Moreover, the IC50 in data set [1] is 0.02 ± 0.01 µg/mL (≈ 0.0159 µM); in data set [6] (recombinant enzyme), 32.8 µM; in data set [2] (growth inhibition, resazurin) it was 0.07 ± 0.009 µg/mL (≈ 0.0558 µM); in [3], less than 0.3 µg/mL; in [4], 0.74 ± 0.03 µg/mL (≈ 0.589 µM); in [5], less than 0.3 µg/mL. The inhibition constant Ki (commonly the equilibrium dissociation constant of an inhibitor or competing ligand from its target) in data set [6] (recombinant enzyme) is 46.2 µM. Moreover, the “increase in potency against M. tuberculosis compared to actinomycin D” value in [2] was 10 fold. Also, in [2] (greater effect than rifampicin), the “potency against M. tuberculosis compared to rifampicin” value was roughly 10 fold. Also, the solubility in solvents entry in data set [7] is “soluble in dichloromethane, chloroform, methanol, ethyl acetate and DMSO”. In data set [8], this compound returned an IC50 at 48 h greater than 80 µg/mL. The “IC50 against Salmonella enterica” value in data set [9] was “no inhibitory effect”.
For the compound `Cc1c2oc3c(C)ccc(C(=O)N[C@@H]4C(=O)N[C@H](C(C)C)C(=O)N5CCC[C@H]5C(=O)N(C)CC(=O)N(C)[C@@H](C(C)C)C(=O)O[C@@H]4C)c3nc-2c(C(=O)N[C@@H]2C(=O)N[C@H](C(C)C)C(=O)N3CCC[C@H]3C(=O)N(C)CC(=O)N(C)[C@@H](C(C)C)C(=O)O[C@@H]2C)c(N)c1=O` [Actinomycin D, actinomycin D] (I: T[dV]P[Sar][NMeV] / II: T[dV]P[Sar][NMeV]; ester I:1-I:C, II:1-II:C; linker I:N-II:N via Actinocin(9to1)), the “IC50 against Mycobacterium bovis var BCG” value in data set [1] came to 0.8 ± 0.09 µg/mL (≈ 0.637 µM). The IC50 in data set [6] is 71.6 µM; in [2] ([…]), 0.8 ± 0.12 µg/mL (≈ 0.637 µM); in data set [9] (Salmonella enterica, read-out: IC50 against Salmonella enterica), 14.7 µg/mL (≈ 11.7 µM). Also, in data set [6], the Ki was 94.9 µM. The “IC50 against Bacillus subtilis” value in data set [3] was less than 0.3 µg/mL. For the same compound, the “IC50 against Mycobacterium smegmatis” value in [4] came out at 0.78 ± 0.21 µg/mL (≈ 0.621 µM). Also, the “IC50 against Salmonella enterica” value in data set [9] was determined as 14.65 ± 1.22 µg/mL (≈ 11.7 µM). In [5], the “IC50 against Staphylococcus aureus” value was less than 0.3 µg/mL.
